pKi: −log10 of the molar value.
Assays:
Assay type in all cases: tissue-based
[1] = target: Beta-1 adrenergic receptor (Rattus norvegicus, UniProt P18090); test: Displacement of [3H]CGP12177 from beta1 adrenoreceptor in Rattus norvegicus (rat) cerebral cortex by liquid scintillation counting
[2] = target: T1, 5-hydroxytryptamine receptor 1A (Rattus norvegicus, UniProt P19327); test: Displacement of [3H]8-OH-DPAT from 5HT1A receptor in Rattus norvegicus (rat) cerebral cortex after 15 min by filter binding assay
T1 sequence (P19327 whole entry): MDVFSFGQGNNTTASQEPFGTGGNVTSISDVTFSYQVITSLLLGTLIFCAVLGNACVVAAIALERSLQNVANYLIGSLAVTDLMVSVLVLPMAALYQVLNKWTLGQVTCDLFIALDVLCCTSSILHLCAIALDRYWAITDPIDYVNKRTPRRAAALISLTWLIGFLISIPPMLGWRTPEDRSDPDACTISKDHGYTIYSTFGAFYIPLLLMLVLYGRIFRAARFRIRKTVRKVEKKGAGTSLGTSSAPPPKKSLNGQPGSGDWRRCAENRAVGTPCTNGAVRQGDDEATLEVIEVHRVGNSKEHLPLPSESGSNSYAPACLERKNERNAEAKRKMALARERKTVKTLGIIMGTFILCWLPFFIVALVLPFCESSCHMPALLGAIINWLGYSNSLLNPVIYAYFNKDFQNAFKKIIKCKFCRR

[3] = target: 5-hydroxytryptamine receptor 2A (Rattus norvegicus, UniProt P14842); test: Displacement of [3H]Ketanserin from 5HT2A receptor in Rattus norvegicus (rat) cerebral cortex by filter binding assay
Sequence of 5-hydroxytryptamine receptor 2A (P14842 whole entry): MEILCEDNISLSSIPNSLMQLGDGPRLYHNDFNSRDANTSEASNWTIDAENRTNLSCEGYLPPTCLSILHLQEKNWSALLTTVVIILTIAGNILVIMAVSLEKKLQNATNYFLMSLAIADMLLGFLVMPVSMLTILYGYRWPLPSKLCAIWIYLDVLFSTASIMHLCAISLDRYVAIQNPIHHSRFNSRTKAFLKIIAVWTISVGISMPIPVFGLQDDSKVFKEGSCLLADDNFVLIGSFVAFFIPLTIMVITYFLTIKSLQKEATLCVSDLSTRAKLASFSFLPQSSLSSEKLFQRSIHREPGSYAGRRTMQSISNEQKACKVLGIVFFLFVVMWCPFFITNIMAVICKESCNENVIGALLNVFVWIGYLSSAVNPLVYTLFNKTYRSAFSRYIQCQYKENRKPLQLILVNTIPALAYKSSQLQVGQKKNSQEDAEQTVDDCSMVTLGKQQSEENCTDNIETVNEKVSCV

Sequence of Beta-1 adrenergic receptor (P18090 whole entry): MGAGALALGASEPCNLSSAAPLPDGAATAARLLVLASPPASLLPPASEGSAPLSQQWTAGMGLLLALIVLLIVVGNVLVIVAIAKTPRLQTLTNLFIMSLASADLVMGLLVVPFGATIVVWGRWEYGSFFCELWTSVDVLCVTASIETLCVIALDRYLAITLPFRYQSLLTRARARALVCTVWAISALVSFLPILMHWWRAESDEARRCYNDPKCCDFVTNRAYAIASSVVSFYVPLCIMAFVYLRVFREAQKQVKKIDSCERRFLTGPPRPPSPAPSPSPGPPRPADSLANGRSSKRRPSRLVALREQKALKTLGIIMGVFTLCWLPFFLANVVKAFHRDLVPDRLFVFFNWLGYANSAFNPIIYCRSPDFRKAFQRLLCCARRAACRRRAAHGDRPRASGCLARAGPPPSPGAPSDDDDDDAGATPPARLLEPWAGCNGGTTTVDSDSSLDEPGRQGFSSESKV

pKi [1]: 4.41 | pKi [2]: 6.43 | pKi [3]: 6.47
SMILES: O=C1C2C3C=CC(C3)C2C(=O)N1OCC(O)CN1CCN(c2ccccc2)CC1 (stereo not drawn)
